Results from patent US7868135B2, “Compositions of lipopeptide antibiotic derivatives and methods of use thereof” (priority 2003, dated 2011).

The compounds below were run on Staphylococcus aureus (MSSA). Conditions: 24 h.
Protocol: (“Approved Standard M7-A3”).
The antimicrobial lipopeptide derivatives described herein were tested for antimicrobial activity against Gram-positive bacteria as follows. The minimum inhibitory concentrations (MIC) of the antimicrobial lipopeptide derivatives of the invention were determined using NCCLS guidelines M7-A6 (2003) with a slight modification in that doubling serial dilutions were used to dilute the test compounds. The broth phase microdilution method was used. Isolated colonies of Staphylococcus aureus (MSSA) from an 18-24 hour blood agar plate cultures were used to inoculate cation adjusted Mueller-Hinton broth (CAMHB) supplemented with 0.625 mM calcium. […] A negative control containing media alone and a positive growth control containing bacteria with media alone were also included. MICs were determined after incubating the plates at about 37° C. for 24 hours. […] In Tables 1 to 16, R is the core cyclic peptide of amphomycin or aspartocin, which can be in the form of a β-isomer, an anhydro, a dianhydro, or any combination thereof. […] Furthermore, a person of skill in the art will appreciate that all the pounds, or groups of compounds, derived from the various combinations of and substituents shown in Tables 1 to 16, are disclosed by the present the same extent as if each compound or group of compounds was set forth individually.

Row | Structure (SMILES) | MIC [µg/mL]
1 | CCCCCCCCCCCCCCC(=O)NC(CC(=O)O)C(=O)NC1C(=O)N2CCCCC2C(=O)NC(C(C)C(=O)O)C(=O)NC(CC(=O)O)C(=O)NCC(=O)NC(CC(=O)O)C(=O)NCC(=O)NC(C(C)NC(=O)CNC(=O)[C@@H](N)C(C)C)C(=O)NC(C(C)C)C(=O)N2CCCC2C(=O)NC1C (some centres unmarked) [Compound 37, C15-Amphomycin-9-Gly-Val] | 2 to 4
2 | CCCCCCCCCCCCCCC(=O)NC(CC(=O)O)C(=O)NC1C(=O)N2CCCCC2C(=O)NC(C(C)C(=O)O)C(=O)NC(CC(=O)O)C(=O)NCC(=O)NC(CC(=O)O)C(=O)NCC(=O)NC(C(C)NC(=O)[C@@H](N)CC(N)=O)C(=O)NC(C(C)C)C(=O)N2CCCC2C(=O)NC1C (some centres unmarked) [Compound 38, C15-Amphomycin-9-Asn] | 2
3 | CCCCCCCCCCCCCCC(=O)NC(CC(=O)O)C(=O)NC1C(=O)N2CCCCC2C(=O)NC(C(C)C(=O)O)C(=O)NC(CC(=O)O)C(=O)NCC(=O)NC(CC(=O)O)C(=O)NCC(=O)NC(C(C)NC(=O)[C@@H](N)Cc2ccc(O)cc2)C(=O)NC(C(C)C)C(=O)N2CCCC2C(=O)NC1C (some centres unmarked) [Compound 39, C15-Amphomycin-9-Tyr] | 32 to 64
4 | CCCCCCCCCCCCCCC(=O)NC(CC(=O)O)C(=O)NC1C(=O)N2CCCCC2C(=O)NC(C(C)C(=O)O)C(=O)NC(CC(=O)O)C(=O)NCC(=O)NC(CC(=O)O)C(=O)NCC(=O)NC(C(C)NC(=O)[C@@H](N)Cc2c[nH]c3ccccc23)C(=O)NC(C(C)C)C(=O)N2CCCC2C(=O)NC1C (some centres unmarked) [Compound 40, C15-Amphomycin-9-Trp] | 32 to 64
5 | CCCCCCCCCCCCCCC(=O)NC(CC(=O)O)C(=O)NC1C(=O)N2CCCCC2C(=O)NC(C(C)C(=O)O)C(=O)NC(CC(=O)O)C(=O)NCC(=O)NC(CC(=O)O)C(=O)NCC(=O)NC(C(C)NC(=O)[C@@H](N)c2ccccc2)C(=O)NC(C(C)C)C(=O)N2CCCC2C(=O)NC1C (some centres unmarked) [Compound 41, C15-Amphomycin-9-Phg] | 4
6 | CCCCCCCCCCCCCCC(=O)NC(CC(=O)O)C(=O)NC1C(=O)N2CCCCC2C(=O)NC(C(C)C(=O)O)C(=O)NC(CC(=O)O)C(=O)NCC(=O)NC(CC(=O)O)C(=O)NCC(=O)NC(C(C)NC(=O)CNC(=O)CN)C(=O)NC(C(C)C)C(=O)N2CCCC2C(=O)NC1C (centres unmarked) [Compound 42, C15-Amphomycin-9-Gly-Gly] | 1
7 | CCCCCCCCCCCCCCC(=O)NC(CC(=O)O)C(=O)NC1C(=O)N2CCCCC2C(=O)NC(C(C)C(=O)O)C(=O)NC(CC(=O)O)C(=O)NCC(=O)NC(CC(=O)O)C(=O)NCC(=O)NC(C(C)NC(=O)[C@@H](N)CCC(N)=O)C(=O)NC(C(C)C)C(=O)N2CCCC2C(=O)NC1C (some centres unmarked) [Compound 43, C15-Amphomycin-9-Gln] | 8 to 16
8 | CCCCCCCCCCCCCCC(=O)NC(CC(=O)O)C(=O)NC1C(=O)N2CCCCC2C(=O)NC(C(C)C(=O)O)C(=O)NC(CC(=O)O)C(=O)NCC(=O)NC(CC(=O)O)C(=O)NCC(=O)NC(C(C)NC(=O)[C@@H](N)[C@@H](C)O)C(=O)NC(C(C)C)C(=O)N2CCCC2C(=O)NC1C (some centres unmarked) [Compound 44, C15-Amphomycin-9-Thr] | 2 to 4
9 | CCCCCCCCCCCCCCC(=O)NC(CC(=O)O)C(=O)NC1C(=O)N2CCCCC2C(=O)NC(C(C)C(=O)O)C(=O)NC(CC(=O)O)C(=O)NCC(=O)NC(CC(=O)O)C(=O)NCC(=O)NC(C(C)NC(=O)CNC(=O)[C@@H](N)CC(C)C)C(=O)NC(C(C)C)C(=O)N2CCCC2C(=O)NC1C (some centres unmarked) [Compound 46, C15-Amphomycin-9-Gly-Leu] | 1
10 | CCCCCCCCCCCCCCC(=O)NC(CC(=O)O)C(=O)NC1C(=O)N2CCCCC2C(=O)NC(C(C)C(=O)O)C(=O)NC(CC(=O)O)C(=O)NCC(=O)NC(CC(=O)O)C(=O)NCC(=O)NC(C(C)NC(=O)CNC(=O)CCC(=O)O)C(=O)NC(C(C)C)C(=O)N2CCCC2C(=O)NC1C (centres unmarked) [Compound 48, C15-Amphomycin-9-Gly-Suc] | 8
11 | CCCCCCCCCCCCCCC(=O)NC(CC(=O)O)C(=O)NC1C(=O)N2CCCCC2C(=O)NC(C(C)C(=O)O)C(=O)NC(CC(=O)O)C(=O)NCC(=O)NC(CC(=O)O)C(=O)NCC(=O)NC(C(C)NC(=O)CNC(C)=O)C(=O)NC(C(C)C)C(=O)N2CCCC2C(=O)NC1C (centres unmarked) [Compound 49, C15-Amphomycin-9-Gly-Ac] | 4
12 | CCCCCCCCCCCCCCC(=O)NC(CC(=O)O)C(=O)NC1C(=O)N2CCCCC2C(=O)NC(C(C)C(=O)O)C(=O)NC(CC(=O)O)C(=O)NCC(=O)NC(CC(=O)O)C(=O)NCC(=O)NC(C(C)NC(=O)[C@@H](N)Cc2ccc(OC)cc2)C(=O)NC(C(C)C)C(=O)N2CCCC2C(=O)NC1C (some centres unmarked) [Compound 52, C15-Amphomycin-9-Tyr(Me)] | 16
13 | CCCCCCCCCCCCCCC(=O)NC(CC(=O)O)C(=O)NC1C(=O)N2CCCCC2C(=O)NC(C(C)C(=O)O)C(=O)NC(CC(=O)O)C(=O)NCC(=O)NC(CC(=O)O)C(=O)NCC(=O)NC(C(C)NC(=O)[C@@H](C)N)C(=O)NC(C(C)C)C(=O)N2CCCC2C(=O)NC1C (stereo partly drawn) [Compound 66, C15-Amphomycin-9-(D-Ala)] | 4
14 | CCCCCCCCCCCCCCC(=O)NC(CC(=O)O)C(=O)NC1C(=O)N2CCCCC2C(=O)NC(C(C)C(=O)O)C(=O)NC(CC(=O)O)C(=O)NCC(=O)NC(CC(=O)O)C(=O)NCC(=O)NC(C(C)NC(=O)CNC(=O)CCCN)C(=O)NC(C(C)C)C(=O)N2CCCC2C(=O)NC1C (centres unmarked) [Compound 68, C15-Amphomycin-9-Gly-GABA] | 2
15 | CCCCCCCCCCCCCCC(=O)NC(CC(=O)O)C(=O)NC1C(=O)N2CCCCC2C(=O)NC(C(C)C(=O)O)C(=O)NC(CC(=O)O)C(=O)NCC(=O)NC(CC(=O)O)C(=O)NCC(=O)NC(C(C)NC(=O)CCNC(=O)CCCCCN)C(=O)NC(C(C)C)C(=O)N2CCCC2C(=O)NC1C (stereo not drawn) [Compound 70, C15-Amphomycin-9-(β-Ala)-Ahx] | 2
16 | CCCCCCCCCCCCCCC(=O)NC(CC(=O)O)C(=O)NC1C(=O)N2CCCCC2C(=O)NC(C(C)C(=O)O)C(=O)NC(CC(=O)O)C(=O)NCC(=O)NC(CC(=O)O)C(=O)NCC(=O)NC(C(C)NC(=O)CCCNC(=O)[C@@H](N)C(C)C)C(=O)NC(C(C)C)C(=O)N2CCCC2C(=O)NC1C (some centres unmarked) [Compound 71, C15-Amphomycin-9-GABA-Val] | 4
17 | CCCCCCCCCCCCCCC(=O)NC(CC(=O)O)C(=O)NC1C(=O)N2CCCCC2C(=O)NC(C(C)C(=O)O)C(=O)NC(CC(=O)O)C(=O)NCC(=O)NC(CC(=O)O)C(=O)NCC(=O)NC(C(C)NC(=O)CCCNC(=O)CCCCCN)C(=O)NC(C(C)C)C(=O)N2CCCC2C(=O)NC1C (centres unmarked) [Compound 72, C15-Amphomycin-9-GABA-Ahx] | 8

Same assay, conditions: S. aureus (MSSA), CAMHB supplemented with 0.625 mM calcium, 24 hours at about 37° C.; a range = compound tested multiple times

Row | Structure (SMILES) | MIC
18 | CCCCCCCCCCCCC(=O)NC(CC(=O)O)C(=O)NC1C(=O)N2CCCCC2C(=O)NC(C(C)C(=O)O)C(=O)NC(CC(=O)O)C(=O)NCC(=O)NC(CC(=O)O)C(=O)NCC(=O)NC(C(C)NC(=O)CCCN)C(=O)NC(C(C)C)C(=O)N2CCCC2C(=O)NC1C (centres unmarked) [Compound 50, C13-Amphomycin-9-GABA] | 50/1 μg/mL
19 | CCCCCCCCCCCCC(=O)NC(CC(=O)O)C(=O)NC1C(=O)N2CCCCC2C(=O)NC(C(C)C(=O)O)C(=O)NC(CC(=O)O)C(=O)NCC(=O)NC(CC(=O)O)C(=O)NCC(=O)NC(C(C)NC(=O)CN)C(=O)NC(C(C)C)C(=O)N2CCCC2C(=O)NC1C (centres unmarked) [Compound 53, C13-Amphomycin-9-Gly] | 53/8 μg/mL
20 | CCCCCCCCCCCCC(=O)NC(CC(=O)O)C(=O)NC1C(=O)N2CCCCC2C(=O)NC(C(C)C(=O)O)C(=O)NC(CC(=O)O)C(=O)NCC(=O)NC(CC(=O)O)C(=O)NCC(=O)NC(C(C)NC(=O)CCN)C(=O)NC(C(C)C)C(=O)N2CCCC2C(=O)NC1C (stereo not drawn) [Compound 54, C13-Amphomycin-9-(β-Ala)] | 54/2-4 μg/mL
21 | CCCCCCCCCCCCC(=O)NC(CC(=O)O)C(=O)NC1C(=O)N2CCCCC2C(=O)NC(C(C)C(=O)O)C(=O)NC(CC(=O)O)C(=O)NCC(=O)NC(CC(=O)O)C(=O)NCC(=O)NC(C(C)NC(=O)CNC)C(=O)NC(C(C)C)C(=O)N2CCCC2C(=O)NC1C (centres unmarked) [Compound 55, C13-Amphomycin-9-Sar] | 55/1 μg/mL
22 | CCCCCCCCCCCC(=O)NC(CC(=O)O)C(=O)NC1C(=O)N2CCCCC2C(=O)NC(C(C)C(=O)O)C(=O)NC(CC(=O)O)C(=O)NCC(=O)NC(CC(=O)O)C(=O)NCC(=O)NC(C(C)NC(=O)CCCN)C(=O)NC(C(C)C)C(=O)N2CCCC2C(=O)NC1C (centres unmarked) [Compound 57, C12-Amphomycin-9-GABA] | 57/16 μg/mL
23 | CCCCCCCCCCCC(=O)NC(CC(=O)O)C(=O)NC1C(=O)N2CCCCC2C(=O)NC(C(C)C(=O)O)C(=O)NC(CC(=O)O)C(=O)NCC(=O)NC(CC(=O)O)C(=O)NCC(=O)NC(C(C)NC(=O)CN)C(=O)NC(C(C)C)C(=O)N2CCCC2C(=O)NC1C (centres unmarked) [Compound 58, C12-Amphomycin-9-Gly] | 58/4-8 μg/mL
24 | CCCCCCCCCCCCCC(=O)NC(CC(=O)O)C(=O)NC1C(=O)N2CCCCC2C(=O)NC(C(C)C(=O)O)C(=O)NC(CC(=O)O)C(=O)NCC(=O)NC(CC(=O)O)C(=O)NCC(=O)NC(C(C)NC(=O)CCN)C(=O)NC(C(C)C)C(=O)N2CCCC2C(=O)NC1C (stereo not drawn) [Compound 59, C14-Amphomycin-9-(β-Ala)] | 59/0.5-1 μg/mL
25 | CCCCCCCCCCCCCC(=O)NC(CC(=O)O)C(=O)NC1C(=O)N2CCCCC2C(=O)NC(C(C)C(=O)O)C(=O)NC(CC(=O)O)C(=O)NCC(=O)NC(CC(=O)O)C(=O)NCC(=O)NC(C(C)NC(=O)CCCN)C(=O)NC(C(C)C)C(=O)N2CCCC2C(=O)NC1C (centres unmarked) [Compound 62, C14-Amphomycin-9-GABA] | 62/0.5-1 μg/mL
26 | CCCCCCCCCCCC(=O)NC(CC(=O)O)C(=O)NC1C(=O)N2CCCCC2C(=O)NC(C(C)C(=O)O)C(=O)NC(CC(=O)O)C(=O)NCC(=O)NC(CC(=O)O)C(=O)NCC(=O)NC(C(C)NC(=O)CCN)C(=O)NC(C(C)C)C(=O)N2CCCC2C(=O)NC1C (stereo not drawn) [Compound 73, C12-Amphomycin-9-(β-Ala)] | 73/2-4 μg/mL
